The conditions of data set [1]: patients with moderate CLD; cited from earlier work.
Data set [2] deals with T1, OATP1B3 (Homo sapiens, UniProt Q9NPD5).
T1 sequence (Q9NPD5 1-702): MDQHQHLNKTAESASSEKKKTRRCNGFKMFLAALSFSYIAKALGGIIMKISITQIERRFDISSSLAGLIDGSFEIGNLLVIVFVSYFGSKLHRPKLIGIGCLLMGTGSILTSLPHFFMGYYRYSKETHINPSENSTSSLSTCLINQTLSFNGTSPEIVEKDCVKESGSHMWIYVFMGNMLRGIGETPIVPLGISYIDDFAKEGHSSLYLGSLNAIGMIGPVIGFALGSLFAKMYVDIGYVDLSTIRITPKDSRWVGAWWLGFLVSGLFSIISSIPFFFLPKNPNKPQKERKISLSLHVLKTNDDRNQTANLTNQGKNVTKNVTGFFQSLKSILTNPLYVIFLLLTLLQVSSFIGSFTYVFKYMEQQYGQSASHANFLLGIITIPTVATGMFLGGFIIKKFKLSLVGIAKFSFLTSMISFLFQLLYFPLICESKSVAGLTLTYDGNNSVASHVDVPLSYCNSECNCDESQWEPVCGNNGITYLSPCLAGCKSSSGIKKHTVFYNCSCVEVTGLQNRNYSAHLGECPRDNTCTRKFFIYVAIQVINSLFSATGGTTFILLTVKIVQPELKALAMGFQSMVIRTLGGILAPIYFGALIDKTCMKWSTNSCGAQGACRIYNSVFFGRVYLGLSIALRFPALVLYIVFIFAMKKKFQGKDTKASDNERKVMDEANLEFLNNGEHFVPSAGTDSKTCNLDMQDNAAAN
In words: Inhibition of OATP1B3-mediated uptake in OATP1B3-transfected HEK293 cells by bile acids and rifampicin.

The test system of another data set is UGTs. In words: Inhibition of EZE glucuronidation by bile acids in rat liver S9. It is filed as in vitro ADME. Particulars: liver S9 fractions, pH 7.4, probe EZE (ezetimibe), 3 μM; formation of EZE-Ph; rat liver S9, 3 μM EZE, bile acids up to 100 μM; read-out: inhibition of EZE-Ph generation. The procedure:
To evaluate the effect of hepatic impairment on the hepatic metabolism of EZE, 0.3 μM, 3 μM, and 30 μM EZE were incubated with rat liver S9 fractions (2 mg of protein/mL) at 37 °C for 60 min in the Tris-HCl-buffered system (100 mM, pH 7.4), consisting of UDPGA (1 mM), MgCl2 (10 mM), and alamethicin (25 μg/mL). To investigate the effect of bile acids on the metabolism of EZE in the liver, 3 μM EZE was incubated with rat or human liver S9 fractions (2 mg of protein/mL) at 37 °C for 60 min in the Tris-HCl-buffered system with or without bile acids at 1, 10, and 100 μM. The total volume of the incubation system was 100 μL. The reactions were terminated by adding 100 μL of ice-cold acetonitrile. Samples were stored at −20 °C until analysis. EZE and EZE-Ph were detected by liquid chromatography with tandem mass spectrometry (LC-MS/MS).

Another data set deals with rat primary hepatocytes. The data set is described as follows: Inhibition of EZE-Ph uptake into rat primary hepatocytes by bile acids and rifampicin. The note with it: 10 μM EZE-Ph, 10 min.
Data set [3] concerns the target T1, OATP1B3.
Substrate in data set [4]: O=C(O)C1OC(Oc2ccc([C@@H]3[C@@H](CC[C@H](O)c4ccc(F)cc4)C(=O)N3c3ccc(F)cc3)cc2)C(O)C(O)C1O
The data set is described as follows: Uptake of EZE-Ph into OAT3-transfected HEK293 cells. The data set is classed as in vitro ADME, human. Particulars: other: OAT3 HEK293, uptake time 5 min; 37.0 °C. As for the experimental part:
(§1) The kinetic parameters and the half inhibitory concentration (IC50) were calculated using GraphPad Prism. […] The intrinsic clearance (CLint) was calculated as CLint = Vmax/Km.

Substrate in data set [5]: O=C(O)C1OC(Oc2ccc([C@@H]3[C@@H](CC[C@H](O)c4ccc(F)cc4)C(=O)N3c3ccc(F)cc3)cc2)C(O)C(O)C1O
The data set is described as follows: Uptake of EZE-Ph into OATP2B1-transfected HEK293 cells. The note with it: other: OATP2B1 HEK293, uptake time 5 min; 37.0 °C. The data set is classed as in vitro ADME, human. As for the experimental part:
as §1

Where two headings read alike, the source gives them in different places.

As to `C=CCN1CC[C@]23c4c5ccc(O)c4O[C@H]2C(=O)CC[C@@]3(O)[C@H]1C5` [Naloxone], in data set [1], the decrease of clearance result is listed as “over 50%”.

The molecule `C[C@H](CCC(=O)NCC(=O)O)[C@H]1CC[C@H]2[C@@H]3[C@H](O)C[C@@H]4C[C@H](O)CC[C@]4(C)[C@H]3C[C@H](O)[C@]12C` [GCA, glycocholic acid] gave an IC50 against OATP1B3 [2] of 79.7 µM. In the data set on UGTs, the inhibition at 60 min was below 40%. The results for the “EZE-Ph uptake by rat hepatocytes in the presence of inhibitor” value in the data set with rat primary hepatocytes (inhibitor 1 μM), in the data set on rat primary hepatocytes (inhibitor 10 μM) and with rat primary hepatocytes (inhibitor 100 μM) were 109%, 64.1% and 16.3%, respectively.

Take `C[C@H](CCC(=O)NCCS(=O)(=O)O)[C@H]1CC[C@H]2[C@@H]3[C@H](O)C[C@@H]4C[C@H](O)CC[C@]4(C)[C@H]3CC[C@]12C` [TCDCA, taurochenodeoxycholic acid]: at OATP1B3 [3], the IC50 is 7.94 µM.

Turning to `C[C@H](CCC(=O)NCCS(=O)(=O)O)[C@H]1CC[C@H]2[C@@H]3[C@H](O)C[C@@H]4C[C@H](O)CC[C@]4(C)[C@H]3C[C@H](O)[C@]12C` [TCA, taurocholic acid], the 50% inhibitory concentration (IC50) on OATP1B3 [2] was 93.1 µM. Moreover, the inhibition at 60 min in the data set on UGTs was below 40%. The “EZE-Ph uptake by rat hepatocytes in the presence of inhibitor” value in the data set on rat primary hepatocytes (inhibitor 1 μM) is on record as 94.1%; with rat primary hepatocytes (inhibitor 100 μM), 13.9%.

B1: OAT3 (Homo sapiens) (protein)
chain: MTFSEILDRVGSMGHFQFLHVAILGLPILNMANHNLLQIFTAATPVHHCRPPHNASTGPWVLPMGPNGKPERCLRFVHPPNASLPNDTQRAMEPCLDGWVYNSTKDSIVTEWDLVCNSNKLKEMAQSIFMAGILIGGLVLGDLSDRFGRRPILTCSYLLLAASGSGAAFSPTFPIYMVFRFLCGFGISGITLSTVILNVEWVPTRMRAIMSTALGYCYTFGQFILPGLAYAIPQWRWLQLTVSIPFFVFFLSSWWTPESIRWLVLSGKSSKALKILRRVAVFNGKKEEGERLSLEELKLNLQKEISLAKAKYTASDLFRIPMLRRMTFCLSLAWFATGFAYYSLAMGVEEFGVNLYILQIIFGGVDVPAKFITILSLSYLGRHTTQAAALLLAGGAILALTFVPLDLQTVRTVLAVFGKGCLSSSFSCLFLYTSELYPTVIRQTGMGVSNLWTRVGSMVSPLVKITGEVQPFIPNIIYGITALLGGSAALFLPETLNQPLPETIEDLENWSLRAKKPKQEPEVEKASQRIPLQPHGPGLGSS
notes: host or cells: HEK293
Turning to B1, in data set [4], the Km is 166 µM, the maximal velocity (Vmax) was found to be 0.000306 µmol/min/mg and the Vmax/Km was determined as 1.84 µL/min/mg.

B2: OATP2B1 (Homo sapiens) (protein)
chain: MGPRIGPAGEVPQVPDKETKATMGTENTPGGKASPDPQDVRPSVFHNIKLFVLCHSLLQLAQLMISGYLKSSISTVEKRFGLSSQTSGLLASFNEVGNTALIVFVSYFGSRVHRPRMIGYGAILVALAGLLMTLPHFISEPYRYDNTSPEDMPQDFKASLCLPTTSAPASAPSNGNCSSYTETQHLSVVGIMFVAQTLLGVGGVPIQPFGISYIDDFAHNSNSPLYLGILFAVTMMGPGLAFGLGSLMLRLYVDINQMPEGGISLTIKDPRWVGAWWLGFLIAAGAVALAAIPYFFFPKEMPKEKRELQFRRKVLAVTDSPARKGKDSPSKQSPGESTKKQDGLVQIAPNLTVIQFIKVFPRVLLQTLRHPIFLLVVLSQVCLSSMAAGMATFLPKFLERQFSITASYANLLIGCLSFPSVIVGIVVGGVLVKRLHLGPVGCGALCLLGMLLCLFFSLPLFFIGCSSHQIAGITHQTSAHPGLELSPSCMEACSCPLDGFNPVCDPSTRVEYITPCHAGCSSWVVQDALDNSQVFYTNCSCVVEGNPVLAGSCDSTCSHLVVPFLLLVSLGSALACLTHTPSFMLILRGVKKEDKTLAVGIQFMFLRILAWMPSPVIHGSAIDTTCVHWALSCGRRAVCRYYNNDLLRNRFIGLQFFFKTGSVICFALVLAVLRQQDKEARTKESRSSPAVEQQLLVSGPGKKPEDSRV
notes: host or cells: HEK293
Consider B2, for which, in data set [5], the Michaelis constant (Km) was found to be 119 µM, the Vmax worked out at 6.69e-05 µmol/min/mg and the Vmax/Km was 0.56 µL/min/mg.

The values above are taken from PMC9785202, “Changes in Disposition of Ezetimibe and Its Active Metabolites Induced by Impaired Hepatic Function: The Influence of Enzyme and Transporter Activities” (Pharmaceutics, 2022).
